Experimental data from US8822517B2, “Arylosulfonamides for the treatment of CNS diseases” (Adamed SP. Z O.O., priority 2010, dated 2014).
Where two headings read alike, the source gives them in different places.

Columns and labels:
[1] = biological target: T1, serotoninergic 5-HT1A receptor (Homo sapiens, UniProt P08908); assay: Binding assay 5-HT1A (h), [3H]8-OH-DPAT, HEK-293 cells; parameters: expressed in transfected cells; host or cells: HEK-293 cells; conditions: read-out: 5-HT1A
T1 sequence (P08908 1-422): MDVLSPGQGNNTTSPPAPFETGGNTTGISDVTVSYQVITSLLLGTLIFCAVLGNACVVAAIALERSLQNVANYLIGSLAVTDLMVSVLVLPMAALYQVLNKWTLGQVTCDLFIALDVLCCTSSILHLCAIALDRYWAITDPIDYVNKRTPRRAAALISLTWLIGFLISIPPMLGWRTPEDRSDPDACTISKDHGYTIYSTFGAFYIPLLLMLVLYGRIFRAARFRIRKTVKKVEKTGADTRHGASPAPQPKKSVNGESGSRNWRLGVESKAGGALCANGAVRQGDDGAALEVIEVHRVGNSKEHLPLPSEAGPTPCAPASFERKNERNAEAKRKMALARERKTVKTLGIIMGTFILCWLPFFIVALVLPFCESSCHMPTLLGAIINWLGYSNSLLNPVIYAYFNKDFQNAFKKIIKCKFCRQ
Procedure, shortened: (§1)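 Single-concentration test (1×10^−6 M). Total and non-specific binding were counted by scintillation, and their difference defines specific binding.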

[2] = biological target: serotoninergic 5-HT7 receptor (Homo sapiens, UniProt P34969); assay: Cellular functional assay, serotoninergic 5-HT7 receptor (agonism/antagonism); format: cell-based; conditions: for activation at 1 µM: read-out: 5-HT7-ag [%]; for inhibition at 1 µM: read-out: 5-HT7-antag. [%]
Description: (§2) The compounds were tested at the concentration of 1×10^−6M.
(§3) In the Tables ag refers to agonism, and antag to antagonism).

[3] = biological target: T2, serotonine transporter (SERT) receptor (Homo sapiens, UniProt P31645); assay: Binding assay SERT (h), [3H]imipramine, CHO cells; conditions: read-out: SERT [%]
T2 construct: expressed in transfected cells; host or cells: CHO cells
Procedure, shortened: as §1

[4] = biological target: serotoninergic 5-HT2A receptor (Homo sapiens, UniProt P28223); assay: Binding assay 5-HT2A (h), [3H]ketanserin, HEK-293 cells; parameters: expressed in transfected cells; host or cells: HEK-293 cells; conditions: read-out: 5-HT2A
Procedure, shortened: as §1

dopaminergic D2 receptor [5] = biological target: T3, dopaminergic D2 receptor (Homo sapiens, UniProt P14416); assay: Binding assay D2S (h), [3H]methyl-spiperone, HEK-293 cells; parameters: expressed in transfected cells; host or cells: HEK-293 cells; conditions: read-out: D2 [%]
Procedure, shortened: as §1
Target sequence in this assay (P14416 1-414 isoform P14416-2): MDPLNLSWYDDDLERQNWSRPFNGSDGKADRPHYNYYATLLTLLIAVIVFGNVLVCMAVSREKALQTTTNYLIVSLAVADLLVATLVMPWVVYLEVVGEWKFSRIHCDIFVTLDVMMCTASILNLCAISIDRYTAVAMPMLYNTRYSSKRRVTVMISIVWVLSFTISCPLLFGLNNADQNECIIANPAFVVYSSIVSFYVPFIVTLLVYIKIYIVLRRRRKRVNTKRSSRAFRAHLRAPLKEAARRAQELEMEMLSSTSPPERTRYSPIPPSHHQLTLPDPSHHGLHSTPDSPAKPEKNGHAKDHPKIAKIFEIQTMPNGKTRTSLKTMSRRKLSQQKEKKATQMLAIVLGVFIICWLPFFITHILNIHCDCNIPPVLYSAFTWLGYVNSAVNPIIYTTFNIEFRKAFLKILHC

adrenergic α1 receptor = assay: Binding assay α1 (non-selective), [3H]prazosin, rat cerebral cortex; conditions: percent inhibition of control specific binding; compounds tested at 1×10^−6 M
Procedure, shortened: as §1

sigma σ receptor = assay: Binding assay σ (non-selective), [3H]DTG, rat cerebral cortex; conditions: percent inhibition of control specific binding; compounds tested at 1×10^−6 M
Procedure, shortened: as §1

adrenergic α1A receptor = biological target: T4, adrenergic α1A receptor (Homo sapiens, UniProt P35348); assay: Cellular functional assay, adrenergic α1A receptor (agonism/antagonism); format: cell-based; conditions: for activation at 1 µM: agonist effect, percent of control specific agonist response, compounds tested at 1×10^−6M, read-out: α1A -ag [%]; for inhibition at 1 µM: read-out: α1A -antag. [%]
T4 sequence (P35348 1-466): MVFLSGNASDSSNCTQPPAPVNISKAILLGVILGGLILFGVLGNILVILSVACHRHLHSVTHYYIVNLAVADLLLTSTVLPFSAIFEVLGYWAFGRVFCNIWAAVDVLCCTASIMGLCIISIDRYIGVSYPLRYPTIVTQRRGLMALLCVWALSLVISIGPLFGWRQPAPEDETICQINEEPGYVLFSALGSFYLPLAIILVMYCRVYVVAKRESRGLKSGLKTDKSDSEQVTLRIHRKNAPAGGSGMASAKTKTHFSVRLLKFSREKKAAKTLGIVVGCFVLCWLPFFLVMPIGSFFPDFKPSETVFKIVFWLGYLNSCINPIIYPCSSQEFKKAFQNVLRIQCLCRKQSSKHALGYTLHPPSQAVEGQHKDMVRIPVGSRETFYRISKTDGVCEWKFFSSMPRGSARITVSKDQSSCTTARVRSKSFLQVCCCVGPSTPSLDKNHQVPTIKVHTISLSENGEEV
Description: […]. The compounds were tested at the concentration of 1×10^−6M.
Conditions and methodology (by reference to the literature) of cellular functional assays are given in Table 13 and the tests results for representative compounds are given in Table 14 (dopaminergic receptor D2), in Table 15 (dopaminergic receptor D3), in Table 16 (serotoninergic receptor 5-HT1A), in Table 17 (serotoninergic receptor 5-HT2A), in Table 18 (serotoninergic receptor 5-HT6), in Table 19 (serotoninergic receptor 5-HT7), in Table 20 (adrenergic α1 receptor), in Table 21 (adrenergic α2C receptor), in Table 22 (histaminergic H1 receptor) and in Table 23 (serotoninergic 5-HT2C receptor). In the Tables ag refers to agonism, and antag to antagonism).

dopaminergic D2 receptor [6] = biological target: T3, dopaminergic D2 receptor; assay: Cellular functional assay, dopaminergic D2 receptor (agonism/antagonism); format: cell-based; conditions: HEK293; for activation at 1 µM: agonist effect, percent of control specific agonist response (3 μM dopamine for control), 1×10^−6 M, D2S (h), HEK-293 cells, read-out: D2-ag [%]; for inhibition at 1 µM: read-out: D2-antag. [%]
Description: as §2, §3
Target sequence in this assay (P14416 whole entry): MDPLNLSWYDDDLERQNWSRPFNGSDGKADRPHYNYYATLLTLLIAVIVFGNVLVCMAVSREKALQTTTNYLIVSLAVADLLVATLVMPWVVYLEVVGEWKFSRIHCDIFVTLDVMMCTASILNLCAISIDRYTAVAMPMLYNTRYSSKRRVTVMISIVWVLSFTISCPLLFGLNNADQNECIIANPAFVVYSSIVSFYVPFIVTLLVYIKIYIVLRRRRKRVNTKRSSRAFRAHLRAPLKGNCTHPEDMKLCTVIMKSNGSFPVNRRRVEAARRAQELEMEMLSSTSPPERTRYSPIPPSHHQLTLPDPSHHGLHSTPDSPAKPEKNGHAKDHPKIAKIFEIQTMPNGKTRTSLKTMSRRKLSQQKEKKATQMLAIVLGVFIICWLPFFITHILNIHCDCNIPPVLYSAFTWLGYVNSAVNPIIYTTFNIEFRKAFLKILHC

[7] = biological target: T1, serotoninergic 5-HT1A receptor; assay: Cellular functional assay, serotoninergic 5-HT1A receptor (agonism/antagonism); format: cell-based; conditions: for inhibition at 1 µM: CHO, read-out: 5-HT1A-antag. [%]; for activation at 1 µM: agonist effect, percent of control specific agonist response (100 nM 8-OH-DPAT for control), 1×10^−6 M, 5-HT1A (h), CHO cells, read-out: 5-HT1A-ag [%]
Description: as §2, §3

[8] = agonist effect, percent of control specific agonist response, compounds tested at 1×10^−6M

Sequence of serotoninergic 5-HT7 receptor (P34969 whole entry): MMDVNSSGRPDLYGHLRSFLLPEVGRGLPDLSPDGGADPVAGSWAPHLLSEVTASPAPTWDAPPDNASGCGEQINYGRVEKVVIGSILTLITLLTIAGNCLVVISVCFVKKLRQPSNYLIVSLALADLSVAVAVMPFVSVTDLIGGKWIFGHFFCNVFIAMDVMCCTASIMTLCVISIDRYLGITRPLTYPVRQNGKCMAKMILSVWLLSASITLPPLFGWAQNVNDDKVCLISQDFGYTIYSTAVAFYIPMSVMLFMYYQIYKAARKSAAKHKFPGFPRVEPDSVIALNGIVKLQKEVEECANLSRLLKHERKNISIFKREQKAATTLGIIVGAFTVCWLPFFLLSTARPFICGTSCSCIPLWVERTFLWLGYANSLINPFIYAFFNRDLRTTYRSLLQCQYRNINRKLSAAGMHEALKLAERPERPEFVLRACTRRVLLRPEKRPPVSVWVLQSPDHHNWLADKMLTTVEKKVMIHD
Sequence of serotoninergic 5-HT2A receptor (P28223 whole entry): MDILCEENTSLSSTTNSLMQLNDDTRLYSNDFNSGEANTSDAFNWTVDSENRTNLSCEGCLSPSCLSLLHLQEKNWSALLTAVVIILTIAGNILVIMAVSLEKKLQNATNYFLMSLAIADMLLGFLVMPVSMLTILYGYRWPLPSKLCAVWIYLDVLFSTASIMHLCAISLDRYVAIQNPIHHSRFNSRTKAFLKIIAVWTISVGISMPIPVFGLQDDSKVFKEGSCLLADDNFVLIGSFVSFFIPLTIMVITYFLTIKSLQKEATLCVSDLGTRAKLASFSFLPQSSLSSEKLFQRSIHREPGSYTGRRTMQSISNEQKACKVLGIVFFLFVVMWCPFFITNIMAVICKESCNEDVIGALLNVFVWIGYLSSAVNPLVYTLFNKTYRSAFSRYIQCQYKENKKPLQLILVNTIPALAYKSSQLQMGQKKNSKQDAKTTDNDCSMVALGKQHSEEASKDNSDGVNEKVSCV
T2 sequence (P31645 whole entry): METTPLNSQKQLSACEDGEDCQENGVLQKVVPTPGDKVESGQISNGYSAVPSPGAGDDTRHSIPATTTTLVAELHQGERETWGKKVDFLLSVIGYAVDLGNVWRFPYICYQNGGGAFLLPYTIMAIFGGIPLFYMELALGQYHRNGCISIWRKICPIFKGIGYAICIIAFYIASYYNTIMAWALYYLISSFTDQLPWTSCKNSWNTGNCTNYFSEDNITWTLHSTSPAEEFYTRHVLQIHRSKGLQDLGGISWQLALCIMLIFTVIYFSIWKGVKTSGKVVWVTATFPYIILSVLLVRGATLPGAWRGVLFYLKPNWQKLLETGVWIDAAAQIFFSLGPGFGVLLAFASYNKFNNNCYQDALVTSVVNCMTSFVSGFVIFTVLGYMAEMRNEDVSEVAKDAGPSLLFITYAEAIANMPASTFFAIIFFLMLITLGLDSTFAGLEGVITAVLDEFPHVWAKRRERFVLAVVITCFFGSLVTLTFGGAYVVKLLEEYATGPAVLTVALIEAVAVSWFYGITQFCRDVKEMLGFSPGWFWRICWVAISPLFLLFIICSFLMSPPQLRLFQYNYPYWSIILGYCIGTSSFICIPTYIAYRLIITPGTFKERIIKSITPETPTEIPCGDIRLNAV

SMILES	inhibition at 1 µM [1] [%]	activation at 1 µM [2] [%]	inhibition at 1 µM [2] [%]	inhibition at 1 µM [3] [%]	inhibition at 1 µM [4] [%]	inhibition at 1 µM (dopaminergic D2 receptor [5]) [%]	α1 [%] (adrenergic α1 receptor)	σ [%] (sigma σ receptor)	activation at 1 µM (adrenergic α1A receptor) [%]	inhibition at 1 µM (adrenergic α1A receptor) [%]	activation at 1 µM [2, 8] [%]	activation at 1 µM (dopaminergic D2 receptor [6]) [%]	inhibition at 1 µM (dopaminergic D2 receptor [6]) [%]	inhibition at 1 µM [7] [%]	activation at 1 µM [7] [%]
Cc1cccc(S(=O)(=O)NCCCCN2CCN(c3nsc4ccccc34)CC2)c1 [Compound 3, N-(4-(4-(1,2-Benzothiazol-3-yl)piperazin-1-yl)butyl)-3-methylbenzenesulphonamide]	98	-2	93	57	100	96	100	66	–	–	–	–	–	–	–
O=S(=O)(NCCCCN1CCN(c2noc3ccccc23)CC1)c1cccc2ccccc12 [Compound 13, N-(4-(4-(1,2-Benzoxazol-3-yl)piperazin-1-yl)butyl)naphthalene-1-sulphonamide]	89	–	95	7	100	99	102	87	0	100	1	2	95	–	–
O=S(=O)(NCCCCN1CCN(c2noc3ccccc23)CC1)c1ccc2ccccc2c1 [Compound 14, N-(4-(4-(1,2-Benzoxazol-3-yl)piperazin-1-yl)butyl)naphthalene-2-sulphonamide]	88	–	85	3	100	99	102	40	0	100	-1	4	98	–	–
O=c1[nH]c2ccc(S(=O)(=O)NCCCCN3CCN(c4noc5ccccc45)CC3)cc2o1 [Compound 16, N-(4-(4-(1,2-Benzoxazol-3-yl)piperazin-1-yl)butyl)-2-oxo-3H-1,3-benzoxazole-6-sulphonamide]	93	–	80	-3	100	99	101	2	0	100	-1	4	98	91	-14
O=S(=O)(NCCCCN1CCC(c2noc3cc(F)ccc23)CC1)c1ccc2ccccc2c1 [Compound 18, N-[4-[4-(6-Fluoro-1,2-benzoxazol-3-yl)piperidin-1-yl]butyl]naphthalene-2-sulphonamide]	81	–	89	39	100	98	–	–	0	99	-1	-1	98	–	–
Cc1cccc(S(=O)(=O)NCCCN2CCC(c3noc4cc(F)ccc34)CC2)c1 [Compound 22, N-[3-[4-(6-Fluoro-1,2-benzoxazol-3-yl)piperidin-1-yl]propyl]-3-methylbenzenesulphonamide]	75	–	100	44	99	96	100	92	0	100	-1	2	99	99	0
O=S(=O)(NCCCCN1CCN(c2cccc3[nH]ccc23)CC1)c1cccc(F)c1 [Compound 28, 3-Fluoro-N-{4-[4-(1H-indol-4-yl)piperazin-1-yl]butyl}benzenesulphonamide]	100	–	23	53	89	98	92	84	–	–	4	49	105	27	63
O=S(=O)(NCCCCN1CCN(c2noc3ccccc23)CC1)c1c[nH]c2ncccc12 [Compound 89, N-[4-[4-(1,2-Benzoxazol-3-yl)piperazin-1-yl]butyl]-1H-pyrrolo[2,3-b]pyridine-3-sulphonamide]	71	–	91	2	99	89	98	−1	-1	100	-2	–	–	–	–
O=S(=O)(NCCCCN1CCC(c2noc3cc(F)ccc23)CC1)c1cc2ccccc2s1 [Compound 312, N-[4-[4-(6-Fluoro-1,2-benzoxazol-3-yl)piperidin-1-yl]butyl]benzothiophene-2-sulphonamide]	86	–	97	35	99	99	100	71	0	100	-2	4	90	–	–
O=S(=O)(NCCCCN1CCN(c2cccc3[nH]ccc23)CC1)c1ccc2cc(Cl)ccc2c1 [Compound 358, 6-Chloro-N-[4-[4-(1H-indol-4-yl)piperazin-1-yl]butyl]naphthalene-2-sulphonamide]	100	–	28	40	99	96	88	84	–	–	10	30	84	70	22
O=c1[nH]c2cccc(N3CCN(CCCNS(=O)(=O)c4cccc5ccccc45)CC3)c2[nH]1 [Compound 423, N-[3-[4-(2-oxo-1,3-dihydrobenzimidazol-4-yl)piperazin-1-yl]propyl]naphthalene-1-sulphonamide]	99	–	–	25	30	97	91	9	16	70	–	41	96	73	35
